Results published in US20070225242A1, “Method and composition for treating and preventing tumor metastasis in vivo” (The Board of Trustees of the Leland Stanford Junior …, priority 2005, published 2007).

B1: catalase: catalase (Sigma), removes hydrogen peroxide, a by-product of LOX activity (protein, UniProt P00432 2-527, looked up)
Catalase: ADNRDPASDQMKHWKEQRAAQKPDVLTTGGGNPVGDKLNSLTVGPRGPLLVQDVVFTDEMAHFDRERIPERVVHAKGAGAFGYFEVTHDITRYSKAKVFEHIGKRTPIAVRFSTVAGESGSADTVRDPRGFAVKFYTEDGNWDLVGNNTPIFFIRDALLFPSFIHSQKRNPQTHLKDPDMVWDFWSLRPESLHQVSFLFSDRGIPDGHRHMNGYGSHTFKLVNANGEAVYCKFHYKTDQGIKNLSVEDAARLAHEDPDYGLRDLFNAIATGNYPSWTLYIQVMTFSEAEIFPFNPFDLTKVWPHGDYPLIPVGKLVLNRNPVNYFAEVEQLAFDPSNMPPGIEPSPDKMLQGRLFAYPDTHRHRLGPNYLQIPVNCPYRARVANYQRDGPMCMMDNQGGAPNYYPNSFSAPEHQPSALEHRTHFSGDVQRFNSANDDNVTQVRTFYLKVLNEEQRKRLCENIAGHLKDAQLFIQKKAVKNFSDVHPEYGSRIQALLDKYNEEKPKNAVHTYVQHGSHLSAREKANL

Experiments:
Type in all cases: cell-based
MDA231 and SiHa cells = assay: In vitro invasion assay (Matrigel-coated inserts); details: various human cancer cells; 24 hr oxygen deprived
Description: The first step of the metastatic process is cell invasion. […] The invasion of various human cancer cells in vitro was examined. […] Because LOX is a copper-dependent enzyme that can act intracellularly or extracellularly, cells were treated with bathocuprione disulphonate (BCS), a copper chelator that cannot permeate the cell membrane.
Invasive behavior was examined in vitro as previously described. Briefly, cells were serum deprived for 24 h then 2.5×10^4 cells were seeded in triplicate on both Matrigel-coated and uncoated inserts, moved to chambers containing 750 μl of FBS as a chemo-attractant and incubated at in normoxic or oxygen deprived conditions for 24 hr. Treatments with beta-aminoproprionitrile or bathocuprione disulphonate (Sigma) were performed 24 h prior to serum deprivation, and continued throughout the experiment.

human cancer cells = assay: Cell viability; details: data not shown
FAK = FAK phosphorylation (phospho-FAK immunoblot); details: cells expressing LOX shRNA transfected with mature LOX
Description: Acquisition of motility is required before cells can migrate and invade. Invasive cell migration is a multi-step process^17 that commences with pseudopod protrusion at the leading edge driven by actin polymerization, resulting in focal adhesion formation and the activation of integrin and focal adhesion kinase (FAK). […] LOX protein expression extended along hairlike fibers protruding from the cell surface into the collagen matrix. […] Remodeling of the actin cytoskeleton with increased formation of stress fibers and focal adhesion in MDA231 control cells particularly in hypoxia was observed, which were not seen in cells expressing LOX shRNA.
A role for fibronectin (FN) was sought, because it was strongly associated with LOX expression in the breast cancer microarray data set that was analyzed (data not shown), is reported to regulate invasion, bind to integrins and interact with LOX, and is hypoxia induced. […] FAK phosphorylation could be induced in the cells expressing LOX shRNA by transfection with mature LOX (but not catalytically dead LOX), confirming a role for LOX in FAK phosphorylation. […]
Methods were performed as previously described. […] LOX was analyzed by using a rabbit polyclonal antibody raised against a synthetic peptide of human LOX (EDTSCDYGYHRRFA (SEQ ID NO:1); Open Biosystems). […] Quantification was performed with ImageQuant software.

Row | Molecule | increased invasion under hypoxia or anoxia (MDA231 and SiHa cells) | cell viability (human cancer cells) | FAK phosphorylation induced by transfection with mature LOX (FAK)
1 | Cc1cc(-c2ccc(S(=O)(=O)O)cc2)c2ccc3c(-c4ccc(S(=O)(=O)O)cc4)cc(C)nc3c2n1 [BCS, bathocuprione disulphonate] | prevented the enhanced invasion of hypoxic cells | Neither treatment with BAPN nor treatment with BCS affected cell viability | 
2 | B1 |  |  | could be prevented
